Key:
[1] = system: HT-29 colon cancer cell line; experiment: Notch target gene expression by qRT-PCR after treatment with gamma-secretase inhibitor; format: cell-based, human
Method: (§1) Cells were seeded into 6-well plates in 2 mL of media. Replicates wells of cells treated with 1 μM, 3 μM, and 6 μM Gamma Secretase Inhibitor (GSI; Sigma L-685,458) or DMSO (Sigma D2650) (vehicle control) immediately after seeding. Cells were incubated at 37° C. 5% CO2 for 20 hours after treatment, then collected, rinsed with PBS (Invitrogen 14040-133), and cell pellets were frozen on dry ice and stored at −80° C. Subsequently, RNA was prepared by hand using the Qiagen RNeasy™ miniprep columns (Qiagen GR8RNA) and qRT-PCR performed to analyze Notch target gene expression according to standard protocol (Qiagen Quantitect SYBR GREEN RT-PCR kit 204245). Quantitative RT-PCR was run on Applied Biosystems 7900HT Sequence Detection System. Results were analyzed using the comparative Ct method. Beta Actin was used as the housekeeping gene and Stratagene Universal Human Reference RNA (Stratagene Cat. No. 740000) was used as an external reference sample to determine the level of expression of the Notch target genes Hes1, Hes5, Hes6, Hes7, Hey1, Hey2, HeyL, and Helt.

[2] = system: LS-1034 colon cancer cell line; experiment: as above; format: cell-based, human
Method: as §1

[3] = system: mouse tumors that did not exhibit elevated Notch1 expression; experiment: Cell viability assay on disaggregated retroviral-induced tumors treated with GSI; format: cell-based; conditions: mouse tumors without elevated Notch1 expression
Method: (§2) To perform the analyses on the retroviral-induced tumors, tumor-bearing animals were euthanized, tumors were collected and 0.2 g pieces were disaggregated using 4 mg/ml collagenase in RPMI media for 2 hours at 37° C. Cells were further disaggregated by passage through an 18 G needle 5-10 times. Single cells in suspension were aspirated in the supernatant for further analysis. For cell viability assays, single cells were re-seeded at 100,000 cell per well in 12-well plates in RPMI media supplemented with 10% FBS, 1% PenStrep, and 0.01 μM Beta estradiol. Cells were then treated for 48 hours with 1, 3 or 10 μM GSI (Sigma L-685,458) or vehicle control. Cell viability and apoptosis were assessed using Guava PCA-96 Viacount Flex reagent (Cat. No. 4700-0060) and measured using a Guava PCA-96 instrument, according to manufacturer's protocol. To measure mRNA expression levels, fresh tumor samples were collected, RNA was prepared using standard protocols, and microarray gene expression profile analysis was performed using Agilent cDNA microarray chips according to manufacturer's recommended protocols. Relative expression of HeyL and other genes was calculated by comparison to a universal mouse reference RNA sample from Stratagene (Universal Mouse Reference RNA Cat. No. 740100). […]

[4] = system: mouse tumors with enhanced expression of Notch1 caused by Mo-MuLV integration near the Notch1 locus; experiment: as above; format: cell-based
Method: To perform the analyses on the retroviral-induced tumors, tumor-bearing animals were euthanized, tumors were collected and 0.2 g pieces were disaggregated using 4 mg/ml collagenase in RPMI media for 2 hours at 37° C. Cells were further disaggregated by passage through an 18 G needle 5-10 times. Single cells in suspension were aspirated in the supernatant for further analysis.
as §2, with “For” for “To perform the analyses on the retroviral-induced tumors, tumor-bearing animals were euthanized, tumors were collected and 0.2 g pieces were disaggregated using 4 mg/ml collagenase in RPMI media for 2 hours at 37° C. Cells were further disaggregated by passage through an 18 G needle 5-10 times. Single cells in suspension were aspirated in the supernatant for further analysis. For”

Compound: CC(C)C[C@H](NC(=O)[C@H](Cc1ccccc1)C[C@@H](O)[C@H](Cc1ccccc1)NC(=O)OC(C)(C)C)C(=O)N[C@@H](Cc1ccccc1)C(N)=O [GSI]
- expression of Notch target genes [1]: decreases expression of Notch target genes
- expression of Notch target genes [2]: decreases expression of Notch target genes
- sensitivity of tumor growth to inhibition by GSI [3]: not sensitive
- sensitivity of tumor growth to inhibition by GSI [4]: sensitivity to inhibition
